Tested on: 596521-263-R-J1-PDC complex spheroids, viability % of control
Assay: Anticancer human tumor 596521-263-R-J1-PDC patient-derived soft tissue sarcoma cell line growth inhibition [GQUAD]
Conditions: for IC50: curve of first compound; for viability, T/C: stronger effect = lower value
Procedure, shortened: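 Viability of tumor cells grown as complex spheroids with endothelial and stromal cells, exposed to drug combinations. Top concentration at or near clinical Cmax (else 10 microM), diluted in half-log increments.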

[1] = second compound 0.0316 µM, first compound 0.0316 µM
[2] = second compound 0.0316 µM, first compound 0.316 µM
[3] = second compound 0.1 µM, first compound 0.0316 µM
[4] = second compound 0.1 µM, first compound 0.316 µM
[5] = second compound 0.316 µM, first compound 0.0316 µM
[6] = second compound 0.316 µM, first compound 0.316 µM
[7] = second compound 1 µM, first compound 0.0316 µM
[8] = second compound 1 µM, first compound 0.316 µM
[9] = second compound 3.16 µM, first compound 0.0316 µM
[10] = second compound 3.16 µM, first compound 0.316 µM
[11] = second compound 10 µM, first compound 0.0316 µM
[12] = second compound 10 µM, first compound 0.316 µM
[13] = second compound 0.0316 µM, first compound 0.1 µM
[14] = second compound 0.0316 µM, first compound 1 µM
[15] = second compound 0.0316 µM, first compound 3.16 µM
[16] = second compound 0.0316 µM, first compound 10 µM
[17] = second compound 0.1 µM, first compound 0.1 µM
[18] = second compound 0.1 µM, first compound 1 µM
[19] = second compound 0.1 µM, first compound 3.16 µM
[20] = second compound 0.1 µM, first compound 10 µM
[21] = second compound 0.316 µM, first compound 0.1 µM
[22] = second compound 0.316 µM, first compound 1 µM
[23] = second compound 0.316 µM, first compound 3.16 µM
[24] = second compound 0.316 µM, first compound 10 µM
[25] = second compound 1 µM, first compound 0.1 µM
[26] = second compound 1 µM, first compound 1 µM
[27] = second compound 1 µM, first compound 3.16 µM
[28] = second compound 1 µM, first compound 10 µM
[29] = second compound 3.16 µM, first compound 0.1 µM
[30] = second compound 3.16 µM, first compound 1 µM
[31] = second compound 3.16 µM, first compound 3.16 µM
[32] = second compound 3.16 µM, first compound 10 µM
[33] = second compound 10 µM, first compound 0.1 µM
[34] = second compound 10 µM, first compound 1 µM
[35] = second compound 10 µM, first compound 3.16 µM
[36] = second compound 10 µM, first compound 10 µM
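Further: spheroids exposed to drugs for 7 days before viability reading.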
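Wherever viability, T/C is given: 100% = DMSO vehicle control viability.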

Structure (SMILES): Cc1[nH]c2ccccc2c1CCNCc1ccc(/C=C/C(=O)NO)cc1 + CN(C)c1ccc(Nc2c3ccc(NC(=O)CCN4CCCC4)cc3nc3cc(NC(=O)CCN4CCCC4)ccc23)cc1
- IC50 (second compound 0.0316 µM): 46.6 nM
- IC50 (second compound 0.1 µM): 42.4 nM
- IC50 (second compound 0.316 µM): 31.8 nM
- IC50 (second compound 1 µM): 36.8 nM
- IC50 (second compound 3.16 µM): 24.9 nM
- IC50 (second compound 10 µM): 13.5 nM
- viability, T/C (second compound 0.0316 µM, first compound 0.000999 µM): 102%
- viability, T/C (second compound 0.0316 µM, first compound 0.00316 µM): 89.2%
- viability, T/C (second compound 0.0316 µM, first compound 0.00999 µM): 79.8%
- viability, T/C [1]: 58.1%
- viability, T/C (second compound 0.0316 µM, first compound 0.0999 µM): 32.9%
- viability, T/C [2]: 1.76%
- viability, T/C (second compound 0.1 µM, first compound 0.000999 µM): 94.7%
- viability, T/C (second compound 0.1 µM, first compound 0.00316 µM): 94.9%
- viability, T/C (second compound 0.1 µM, first compound 0.00999 µM): 78.1%
- viability, T/C [3]: 58.4%
- viability, T/C (second compound 0.1 µM, first compound 0.0999 µM): 27.4%
- viability, T/C [4]: 2.91%
- viability, T/C (second compound 0.316 µM, first compound 0.000999 µM): 102%
- viability, T/C (second compound 0.316 µM, first compound 0.00316 µM): 81.3%
- viability, T/C (second compound 0.316 µM, first compound 0.00999 µM): 77%
- viability, T/C [5]: 50.4%
- viability, T/C (second compound 0.316 µM, first compound 0.0999 µM): 22.8%
- viability, T/C [6]: 1.67%
- viability, T/C (second compound 1 µM, first compound 0.000999 µM): 90.6%
- viability, T/C (second compound 1 µM, first compound 0.00316 µM): 88.3%
- viability, T/C (second compound 1 µM, first compound 0.00999 µM): 75.6%
- viability, T/C [7]: 54.8%
- viability, T/C (second compound 1 µM, first compound 0.0999 µM): 23.3%
- viability, T/C [8]: 1.36%
- viability, T/C (second compound 3.16 µM, first compound 0.000999 µM): 78.6%
- viability, T/C (second compound 3.16 µM, first compound 0.00316 µM): 82.4%
- viability, T/C (second compound 3.16 µM, first compound 0.00999 µM): 64.7%
- viability, T/C [9]: 46.2%
- viability, T/C (second compound 3.16 µM, first compound 0.0999 µM): 18.4%
- viability, T/C [10]: 1.06%
- viability, T/C (second compound 10 µM, first compound 0.000999 µM): 62.2%
- viability, T/C (second compound 10 µM, first compound 0.00316 µM): 53.7%
- viability, T/C (second compound 10 µM, first compound 0.00999 µM): 57.4%
- viability, T/C [11]: 36.4%
- viability, T/C (second compound 10 µM, first compound 0.0999 µM): 13.3%
- viability, T/C [12]: 0.5%

Structure (SMILES): CC1COCCN1c1cc(C2(O)CC3CCC(C2)O3)c2cnn(-c3ccn[nH]3)c2n1 (stereo not drawn) + Cc1cnc(CNC(=O)c2c(=O)c3ccc(N4CCCN(C)CC4)nc3n3c2sc2ccccc23)cn1
- IC50 (second compound 0.0316 µM): 211 nM
- IC50 (second compound 0.1 µM): 115 nM
- IC50 (second compound 0.316 µM): 158 nM
- IC50 (second compound 1 µM): 63.7 nM
- IC50 (second compound 3.16 µM): < 31.6 nM
- IC50 (second compound 10 µM): < 31.6 nM
- viability, T/C [1]: 65.1%
- viability, T/C [13]: 60.9%
- viability, T/C [2]: 42.7%
- viability, T/C [14]: 34.6%
- viability, T/C [15]: 25.5%
- viability, T/C [16]: 13.8%
- viability, T/C [3]: 61%
- viability, T/C [17]: 49.9%
- viability, T/C [4]: 42.3%
- viability, T/C [18]: 33%
- viability, T/C [19]: 24.9%
- viability, T/C [20]: 15.2%
- viability, T/C [5]: 56.9%
- viability, T/C [21]: 54%
- viability, T/C [6]: 47.1%
- viability, T/C [22]: 29.7%
- viability, T/C [23]: 26.5%
- viability, T/C [24]: 13.6%
- viability, T/C [7]: 56.2%
- viability, T/C [25]: 44.2%
- viability, T/C [8]: 38.9%
- viability, T/C [26]: 31.4%
- viability, T/C [27]: 23.9%
- viability, T/C [28]: 13.8%
- viability, T/C [9]: 49.2%
- viability, T/C [29]: 40.2%
- viability, T/C [10]: 41.5%
- viability, T/C [30]: 24.8%
- viability, T/C [31]: 27.5%
- viability, T/C [32]: 14.4%
- viability, T/C [11]: 37.7%
- viability, T/C [33]: 32.6%
- viability, T/C [12]: 33.6%
- viability, T/C [34]: 27.9%
- viability, T/C [35]: 18.2%
- viability, T/C [36]: 4.21%

Structure (SMILES): O=c1[nH]cc(F)c(=O)[nH]1 + CN(C)c1ccc(Nc2c3ccc(NC(=O)CCN4CCCC4)cc3nc3cc(NC(=O)CCN4CCCC4)ccc23)cc1
- IC50 (second compound 0.0316 µM): > 10000 nM
- IC50 (second compound 0.1 µM): > 10000 nM
- IC50 (second compound 0.316 µM): > 10000 nM
- IC50 (second compound 1 µM): > 10000 nM
- IC50 (second compound 3.16 µM): > 10000 nM
- IC50 (second compound 10 µM): > 10000 nM
- viability, T/C [1]: 111%
- viability, T/C [13]: 118%
- viability, T/C [2]: 94.2%
- viability, T/C [14]: 94.4%
- viability, T/C [15]: 109%
- viability, T/C [16]: 91.1%
- viability, T/C [3]: 102%
- viability, T/C [17]: 117%
- viability, T/C [4]: 105%
- viability, T/C [18]: 97%
- viability, T/C [19]: 110%
- viability, T/C [20]: 89.7%
- viability, T/C [5]: 107%
- viability, T/C [21]: 92.1%
- viability, T/C [6]: 95.4%
- viability, T/C [22]: 93.9%
- viability, T/C [23]: 95.4%
- viability, T/C [24]: 96.4%
- viability, T/C [7]: 98.9%
- viability, T/C [25]: 101%
- viability, T/C [8]: 102%
- viability, T/C [26]: 111%
- viability, T/C [27]: 105%
- viability, T/C [28]: 98.2%
- viability, T/C [9]: 89.4%
- viability, T/C [29]: 89.6%
- viability, T/C [10]: 103%
- viability, T/C [30]: 85.6%
- viability, T/C [31]: 110%
- viability, T/C [32]: 80%
- viability, T/C [11]: 66.5%
- viability, T/C [33]: 67.4%
- viability, T/C [12]: 63.1%
- viability, T/C [34]: 75.2%
- viability, T/C [35]: 68.4%
- viability, T/C [36]: 64.1%

Structure (SMILES): C#Cc1c(F)ccc2cc(O)cc(-c3ncc4c(N5CC6CCC(C5)N6)nc(OCC56CCCN5CC(F)C6)nc4c3F)c12 (stereo not drawn) + Cc1cnc(CNC(=O)c2c(=O)c3ccc(N4CCCN(C)CC4)nc3n3c2sc2ccccc23)cn1
- IC50 (second compound 0.0316 µM): > 10000 nM
- IC50 (second compound 0.1 µM): > 10000 nM
- IC50 (second compound 0.316 µM): > 10000 nM
- IC50 (second compound 1 µM): > 10000 nM
- IC50 (second compound 3.16 µM): > 10000 nM
- IC50 (second compound 10 µM): < 31.6 nM
- viability, T/C [1]: 93.2%
- viability, T/C [13]: 94.4%
- viability, T/C [2]: 101%
- viability, T/C [14]: 88%
- viability, T/C [15]: 98.5%
- viability, T/C [16]: 90.7%
- viability, T/C [3]: 92.9%
- viability, T/C [17]: 74.9%
- viability, T/C [4]: 76.7%
- viability, T/C [18]: 93.5%
- viability, T/C [19]: 90.8%
- viability, T/C [20]: 82.9%
- viability, T/C [5]: 72.5%
- viability, T/C [21]: 74.6%
- viability, T/C [6]: 70.4%
- viability, T/C [22]: 93.3%
- viability, T/C [23]: 91.8%
- viability, T/C [24]: 66.7%
- viability, T/C [7]: 60.7%
- viability, T/C [25]: 60.8%
- viability, T/C [8]: 61.4%
- viability, T/C [26]: 66.3%
- viability, T/C [27]: 67.4%
- viability, T/C [28]: 52.5%
- viability, T/C [9]: 56.4%
- viability, T/C [29]: 49.2%
- viability, T/C [10]: 49.8%
- viability, T/C [30]: 57%
- viability, T/C [31]: 50.9%
- viability, T/C [32]: 54%
- viability, T/C [11]: 36.3%
- viability, T/C [33]: 14.9%
- viability, T/C [12]: 39.6%
- viability, T/C [34]: 40.7%
- viability, T/C [35]: 36.9%
- viability, T/C [36]: 0.57%

— PubChem BioAssay AID2060500 (Molecular Pharmacology Branch, DTP, NCI, 2025)
